The values that follow come from PMC9896555, “Cyclic Acetals as Novel Long-Lasting Mosquito Repellents” (Journal of Agricultural and Food Chemistry, 2023).

SMILES strings stand for the structures. Read-outs that look alike come from different tables or passages of the source.

In series [1] the test system is Aedes albopictus. Kind of series: Effective dose / protection efficacy, human-bait technique. In kind it is in vivo. Here is the method:
The repellence of DEET, Icaridin (both supplied by Istituto Biochimico VEBI s.r.l.), acetals, and the synthesized hydroxyacetals was evaluated againstAedes albopictususing the human-bait technique (to simulate the condition of human skin on which repellents will be applied).[22]A. albopictuswas reared and tested at 26 ± 2 °C, ≥60 ± 10% relative humidity (RH), and at 14:10 h light/dark photoperiod, within Plexiglas cylindrical laboratory cages (35 cm diameter, 60 cm length) with one end closed by a net. During the tests, cages contained ≈150 nulliparous, 4–7 day-old, nonblood-fed females. For each compound to be tested, up to six volunteers participated in the trial.
The study was approved by the Regional Ethics Committee for Clinical Trials of Tuscany Region with the registered number 20383. Volunteers agreed to take part in the experiments following informed consent; only volunteers non-allergic to mosquito bites participated in the trials. On the day of the bioassay, they had no contact with lotions, perfumes, oils, or perfumed soaps. They wore latex surgical gloves, in which a dorsal square area of 30 cm^2 was cut open. Mosquito-exposed skin was treated with 50 μL of ethanol, as the negative hand control. The other hand was treated with 50 μL of the tested compounds in ethanol solution (dosages corresponding to 0.081, 0.17, 0.33, 0.5, 0.83, 1.7, 8.3, 16.7, and 83.3 μg/cm^2). Both hands were presented in the same test cage. The number of probing mosquitoes in a 3 min exposure period was recorded. During each test, the control and the treated hand were presented interchanged to verify the mosquitoes’ readiness to bite. Trials were considered valid only if at least 30 mosquitoes performed probing behavior on the control hand before each repellent dosage was tested. The protection efficacy (PE %) obtained from all replicates was calculated, according to the WHO guidelines[31] using this formula [drawing 1]
To evaluate the protection efficacy, volunteers applied increasing doses of the compounds to the skin on the back of their hands (30 cm^2, while the rest was covered with a rubber glove) and counted the number of mosquitoes attempting to bite; the solvent only was used on the control hand. The protection (percentage of repelled mosquitoes) was calculated as reported in the Material and Methods section.

Series [2] concerns Aedes albopictus. Kind of series: Protection time at 0.17 mg/cm2, human-bait technique. Format: in vivo. The settings on record: for pest or weed control at 0.17 mg/cm2, 0.17 mg/cm2: Aedes albopictus, topical, read-out: Protection time PE%. The gist of the method:
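Human-bait test with 100 μL of 5% ethanol solution applied to skin (0.17 mg/cm2); ethanol-treated hand as negative control. Repellency checked hourly up to 8 h on up to 8 volunteers; protection time taken as mean time with >95% protection, complete protection time estimated by Kaplan–Meier.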

A further series relates to HaCaT cells. Kind of series: Cytotoxicity on human keratinocytes (MTS). In kind it is cell-based. The settings on record: 82 μg/mL, 24 h. Here is the method: HaCaT cells were cultured in 5% CO2 at 37 °C in Dulbecco’s modified Eagle’s medium (DMEM), supplemented with 10% fetal bovine serum (FBS), 1% L-glutamine ([…]), and 1% penicillin–streptomycin (Thermo Fisher Scientific, Rodano, Milan, Italy). […] Experiments were performed in triplicate.

In the next series the test system is RAW 264.7. The series is described as follows: Immunogenicity on murine macrophages (nitric oxide release). In kind it is cell-based. On the procedure: Cells were cultured in DMEM, with 10% FBS, 1% L-glutamine (2 mM), and 1% penicillin–streptomycin 100 U/mL at 37 °C in an atmosphere containing 5% CO2. RAW264.7 were seeded (1 × 10^5 cells/well) and exposed to five derivatives or Icaridin, at 82 μg/mL or to LPS (1 μg/mL) as a positive control, for 3 and 6 h. After that, nitric oxide release was determined in the culture media as previously described.[32] Experiments were performed in triplicate.

Setting [3] is: Aedes albopictus, topical, read-out: Protection efficacy PE%.

In the case of `CCC(C)OC(=O)N1CCCCC1CCO` (stereo not drawn) [Icaridin, reference compound], in the series on Aedes albopictus [1] (setting [3]), the pest or weed control at 0.081 µg/cm2, 0.081 µg/cm2 is 42.4%; the pest or weed control at 0.17 µg/cm2, 0.17 µg/cm2 amounted to 53.7%; the pest or weed control at 0.33 µg/cm2, 0.33 µg/cm2 came to 61.8%; the pest or weed control at 0.5 µg/cm2, 0.5 µg/cm2 came to 77.8%. Moreover, in the series with Aedes albopictus [1] (setting [3]), the pest or weed control at 0.83 µg/cm2, 0.83 µg/cm2 came out at 69.3%; the pest or weed control at 1.7 µg/cm2, 1.7 µg/cm2 is 99.6%; the pest or weed control at 8.3 µg/cm2, 8.3 µg/cm2 came to 100%; the pest or weed control at 16.7 µg/cm2, 16.7 µg/cm2 was 100%. Also, the pest or weed control at 83.3 µg/cm2, 83.3 µg/cm2 with Aedes albopictus [1] (setting [3]) turned out to be 100%. For the same molecule, the “100% PE” value in the series with Aedes albopictus [1] (Table S1) came out at 8.3 µg/cm2. Moreover, in the series with Aedes albopictus [2] (0.17mg/cm2, 0 min), the “Protection time PE%” value was found to be 100%. Further, in the series on Aedes albopictus [2] (1 h), the pest or weed control at 0.17 mg/cm2, 0.17 mg/cm2 was 100%. Moreover, the pest or weed control at 0.17 mg/cm2, 0.17 mg/cm2 with Aedes albopictus [2] (2 h) was 100%. Also, the pest or weed control at 0.17 mg/cm2, 0.17 mg/cm2 in the series on Aedes albopictus [2] (3 h) was found to be 99.5%. In addition, the pest or weed control at 0.17 mg/cm2, 0.17 mg/cm2 with Aedes albopictus [2] (4 h) amounted to 99.5%. Besides, in the series on Aedes albopictus [2] (5 h), the pest or weed control at 0.17 mg/cm2, 0.17 mg/cm2 came out at 99.8%. The pest or weed control at 0.17 mg/cm2, 0.17 mg/cm2 in the series on Aedes albopictus [2] (6 h) is 98.7%. Further, the pest or weed control at 0.17 mg/cm2, 0.17 mg/cm2 in the series with Aedes albopictus [2] (7 h) was 98.7%. Also, in the series on Aedes albopictus [2] (8 h), the pest or weed control at 0.17 mg/cm2, 0.17 mg/cm2 worked out at 97.6%. Further, in the series on Aedes albopictus [2] (at the dose of 0.17mg/cm2), the “Average PT >95% (% coefficient of variation)” value is recorded as 480 (2.2) min. Besides, in the series on Aedes albopictus [2] (at the dose of 0.17mg/cm2, Kaplan–Meier estimate), the “Estimated 100% PT (complete protection time, mean±SE)” value is listed as 370 ± 52 min. The molecule further displayed a survival of keratocytes with HaCaT cells of 91%. In the series on RAW 264.7 (RAW264.7, 82 μg/mL, 6 h), the “immunogenicity (nitric oxide release / nitrite production), in words” value was “three-time increase in the nitrite production compared to the control treatment”. In addition, in the series on RAW 264.7 (RAW264.7, positive control LPS 1 μg/mL), the “production of nitrite as compared to the positive control” value came out at 40%.
